Test results: PubChem BioAssay AID288 (DTP/NCI, 2004)
Inconclusive results are not listed.

System: BDF1 mice, M5076 sarcoma s.c., survival/tumor T/C
Assay: NCI In Vivo Anticancer Drug Screen. Data for tumor model Sarcoma M5076 (subcutaneous) in B6D2F1 (BDF1) mice
Details: schedule: Q02DX011 (ip), vehicle: saline, higher = larger tumour
Method: The antitumor activity of compounds was measured in mice bearing transplantable tumors. Survival or tumor size were measured and the results are expressed as the measurement made in the treated group (T) divided by the measurement made in the vehicle treated control group (C). The tumor model used in this assay is Sarcoma M5076 (subcutaneous) in B6D2F1 (BDF1) mice

CC[C@](O)(C(=O)O)c1cc2n(c(=O)c1CO)Cc1cc3ccccc3nc1-2
T/C (endpoint: mean tumor weight, dose: 1.13 mg/kg/injection): 95 % of control | T/C (endpoint: mean tumor weight, dose: 2.25 mg/kg/injection): 61 % of control | T/C (endpoint: mean tumor weight, dose: 4.5 mg/kg/injection): 25 % of control | T/C (endpoint: median tumor weight (est.), dose: 1.13 mg/kg/injection): 97 % of control | T/C (endpoint: median tumor weight (est.), dose: 2.25 mg/kg/injection): 96 % of control | T/C (endpoint: median tumor weight (est.), dose: 4.5 mg/kg/injection): 44 % of control
